In ChEMBL document CHEMBL1201862, “PubChem BioAssay data set” (2004):
Values belong to the compound of their own block, whether it stands above or below them. Active and inactive are the calls of the source.

What was measured:
Assay type in all cases: functional
[1] = target: T1, Polyadenylate-binding protein 1 (Homo sapiens, UniProt P11940); assay: MLLE binding blockers, Cy5 peptide tracer – biochemical, fluorescence polarization, Cy5-PAM2 peptide, secondary, miRNA deadenylation inhibitor project, dose response (AID 602260); settings: read-out: IC50_Mean
[2] = target: T2, High affinity choline transporter 1 (Homo sapiens, UniProt Q9GZV3); assay: human choline transporter blockers, potency – cell-based, 5-point CRC, membrane potential dye, dose response (AID 504840)
T2 sequence (Q9GZV3 whole entry): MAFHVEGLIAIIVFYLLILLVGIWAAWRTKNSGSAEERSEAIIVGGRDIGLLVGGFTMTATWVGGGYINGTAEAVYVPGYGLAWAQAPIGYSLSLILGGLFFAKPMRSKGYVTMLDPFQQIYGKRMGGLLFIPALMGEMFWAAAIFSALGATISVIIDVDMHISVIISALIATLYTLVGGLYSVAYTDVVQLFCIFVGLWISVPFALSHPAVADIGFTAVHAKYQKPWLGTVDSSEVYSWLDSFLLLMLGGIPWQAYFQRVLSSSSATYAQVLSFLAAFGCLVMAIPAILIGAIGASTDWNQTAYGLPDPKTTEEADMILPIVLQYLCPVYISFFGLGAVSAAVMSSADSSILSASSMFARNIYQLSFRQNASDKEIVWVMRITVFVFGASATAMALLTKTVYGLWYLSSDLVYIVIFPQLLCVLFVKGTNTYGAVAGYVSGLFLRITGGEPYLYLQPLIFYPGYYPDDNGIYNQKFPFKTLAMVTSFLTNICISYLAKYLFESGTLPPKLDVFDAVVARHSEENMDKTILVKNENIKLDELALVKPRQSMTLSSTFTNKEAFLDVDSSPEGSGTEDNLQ

[3] = target: T2, High affinity choline transporter 1; assay: human choline transporter blockers, potency – cell-based, 10-point CRC, membrane potential dye, dose response (AID 588401);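 further: membrane potential dye fluorescence of choline-evoked depolarization via CHT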
[4] = target: T1, Polyadenylate-binding protein 1; assay: MLLE domain peptide-binding blockers, IC50 – biochemical, fluorescence polarization, FITC-PAM2 peptide, dose response (AID 602259); settings: read-out: IC50_Mean
[5] = target: Multidrug resistance protein CDR2 (Candida albicans (strain SC5314 / ATCC MYA-2876) (Yeast), UniProt P78595); assay: inhibition of Nile Red efflux via Candida CDR2 – S. cerevisiae AD1-8u, singleplex, Cherry Pick1 hits, dose response (AID 588604)
[6] = target: ALK tyrosine kinase receptor (Homo sapiens, UniProt Q9UM73);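 further: ALK tested as one member of a kinase panel screen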
[7] = target: Cyclin-dependent kinase 19 (Homo sapiens, UniProt Q9BWU1); assay: Navigating the Kinome. Panel member name: CDC2L6
[8] = target: DNA dC->dU-editing enzyme APOBEC-3G (Homo sapiens, UniProt Q9HC16); assay: SAR analysis of small molecule inhibitors of APOBEC3G DNA Deaminase via a fluorescence-based single-stranded DNA deaminase assay - Set 2.; settings: read-out: IC50_Mean
[9] = target: DNA dC->dU-editing enzyme APOBEC-3A (Homo sapiens, UniProt P31941); assay: SAR analysis of small molecule inhibitors of APOBEC3A DNA Deaminase via a fluorescence-based single-stranded DNA deaminase assay - Set 2.; settings: read-out: IC50_Mean
[10] = target: Casein kinase I isoform alpha (Homo sapiens, UniProt P48729)
[11] = target: Dual specificity protein kinase CLK4 (Homo sapiens, UniProt Q9HAZ1)
Dual specificity protein kinase CLK4, sequence (Q9HAZ1 whole entry): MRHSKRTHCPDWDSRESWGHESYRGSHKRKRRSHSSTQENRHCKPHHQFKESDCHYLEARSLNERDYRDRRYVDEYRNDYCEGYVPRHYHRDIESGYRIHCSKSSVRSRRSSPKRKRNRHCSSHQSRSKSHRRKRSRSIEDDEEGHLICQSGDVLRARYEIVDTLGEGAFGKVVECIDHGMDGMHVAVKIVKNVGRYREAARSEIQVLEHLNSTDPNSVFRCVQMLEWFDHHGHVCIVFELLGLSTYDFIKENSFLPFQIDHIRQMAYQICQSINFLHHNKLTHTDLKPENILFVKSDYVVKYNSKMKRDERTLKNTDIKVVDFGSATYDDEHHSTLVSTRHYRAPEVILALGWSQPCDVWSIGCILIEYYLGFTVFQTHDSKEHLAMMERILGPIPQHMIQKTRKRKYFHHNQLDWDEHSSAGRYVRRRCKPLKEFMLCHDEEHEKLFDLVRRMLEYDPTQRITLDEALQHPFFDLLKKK

T1 sequence (P11940 whole entry): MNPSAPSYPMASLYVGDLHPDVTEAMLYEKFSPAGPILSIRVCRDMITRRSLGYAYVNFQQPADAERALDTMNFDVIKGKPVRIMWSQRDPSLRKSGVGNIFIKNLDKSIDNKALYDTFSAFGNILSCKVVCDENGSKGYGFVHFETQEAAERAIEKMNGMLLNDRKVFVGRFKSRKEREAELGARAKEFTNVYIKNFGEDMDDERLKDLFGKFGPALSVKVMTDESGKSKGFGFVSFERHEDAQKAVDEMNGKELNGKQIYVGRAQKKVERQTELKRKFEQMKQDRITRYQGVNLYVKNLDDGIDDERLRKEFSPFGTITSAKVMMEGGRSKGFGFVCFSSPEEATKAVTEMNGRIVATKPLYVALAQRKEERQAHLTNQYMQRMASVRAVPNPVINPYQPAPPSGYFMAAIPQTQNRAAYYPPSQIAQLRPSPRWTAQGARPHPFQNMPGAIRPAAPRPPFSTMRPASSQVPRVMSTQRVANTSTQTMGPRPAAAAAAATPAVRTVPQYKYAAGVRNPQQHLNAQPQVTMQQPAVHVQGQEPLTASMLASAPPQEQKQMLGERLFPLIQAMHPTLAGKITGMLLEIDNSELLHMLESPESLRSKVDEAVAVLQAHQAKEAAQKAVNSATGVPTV
Cyclin-dependent kinase 19, sequence (Q9BWU1 whole entry): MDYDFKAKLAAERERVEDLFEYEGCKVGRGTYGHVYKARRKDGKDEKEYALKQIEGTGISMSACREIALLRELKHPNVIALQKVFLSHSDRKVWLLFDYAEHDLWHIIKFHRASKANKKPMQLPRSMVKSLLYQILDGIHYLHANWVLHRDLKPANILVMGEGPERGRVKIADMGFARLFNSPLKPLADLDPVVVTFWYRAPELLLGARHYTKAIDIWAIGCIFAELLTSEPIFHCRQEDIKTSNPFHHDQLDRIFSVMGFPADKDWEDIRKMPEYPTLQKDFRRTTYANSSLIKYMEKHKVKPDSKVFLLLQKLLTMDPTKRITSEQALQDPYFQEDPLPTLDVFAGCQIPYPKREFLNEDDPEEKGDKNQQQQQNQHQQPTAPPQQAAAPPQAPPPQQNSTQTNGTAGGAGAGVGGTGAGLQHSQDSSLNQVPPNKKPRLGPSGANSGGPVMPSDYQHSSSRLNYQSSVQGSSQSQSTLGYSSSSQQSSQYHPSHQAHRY
Multidrug resistance protein CDR2, sequence (P78595 whole entry): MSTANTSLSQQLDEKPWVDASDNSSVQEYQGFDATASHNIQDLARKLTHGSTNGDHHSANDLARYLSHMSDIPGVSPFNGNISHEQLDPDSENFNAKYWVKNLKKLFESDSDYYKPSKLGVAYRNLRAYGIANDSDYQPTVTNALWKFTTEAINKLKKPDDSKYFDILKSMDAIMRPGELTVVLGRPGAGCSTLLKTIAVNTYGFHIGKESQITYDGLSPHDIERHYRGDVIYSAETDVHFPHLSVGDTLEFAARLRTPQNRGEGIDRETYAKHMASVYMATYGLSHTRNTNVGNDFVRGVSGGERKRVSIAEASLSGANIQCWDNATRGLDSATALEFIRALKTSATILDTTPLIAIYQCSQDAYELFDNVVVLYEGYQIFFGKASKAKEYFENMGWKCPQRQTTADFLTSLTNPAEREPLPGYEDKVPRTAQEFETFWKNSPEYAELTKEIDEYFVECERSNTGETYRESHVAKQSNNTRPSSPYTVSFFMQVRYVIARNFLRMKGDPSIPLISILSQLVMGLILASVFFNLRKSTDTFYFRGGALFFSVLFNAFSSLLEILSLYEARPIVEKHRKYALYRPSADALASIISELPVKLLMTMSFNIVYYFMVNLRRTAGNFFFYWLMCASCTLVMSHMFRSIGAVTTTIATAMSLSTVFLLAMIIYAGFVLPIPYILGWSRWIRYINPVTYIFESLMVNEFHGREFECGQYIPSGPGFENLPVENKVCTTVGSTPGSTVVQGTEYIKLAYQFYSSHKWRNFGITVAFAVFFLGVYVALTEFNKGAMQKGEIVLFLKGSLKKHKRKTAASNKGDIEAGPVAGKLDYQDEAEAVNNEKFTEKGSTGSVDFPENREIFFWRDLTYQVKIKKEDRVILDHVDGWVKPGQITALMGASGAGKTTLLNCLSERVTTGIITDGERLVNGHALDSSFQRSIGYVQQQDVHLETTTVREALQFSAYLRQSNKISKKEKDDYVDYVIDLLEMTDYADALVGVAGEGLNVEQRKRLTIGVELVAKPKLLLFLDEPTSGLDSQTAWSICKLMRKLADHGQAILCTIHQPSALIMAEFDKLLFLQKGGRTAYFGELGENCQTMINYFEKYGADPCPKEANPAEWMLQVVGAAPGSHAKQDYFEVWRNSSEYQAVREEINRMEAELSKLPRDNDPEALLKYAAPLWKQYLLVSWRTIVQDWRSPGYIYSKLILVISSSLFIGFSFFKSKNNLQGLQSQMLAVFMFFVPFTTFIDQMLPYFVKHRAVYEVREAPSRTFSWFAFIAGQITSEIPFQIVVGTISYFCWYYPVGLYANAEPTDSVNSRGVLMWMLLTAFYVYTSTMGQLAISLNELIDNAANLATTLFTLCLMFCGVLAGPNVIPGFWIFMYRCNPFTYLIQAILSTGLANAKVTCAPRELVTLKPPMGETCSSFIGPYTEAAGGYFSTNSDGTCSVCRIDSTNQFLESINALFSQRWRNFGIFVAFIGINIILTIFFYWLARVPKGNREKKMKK
Casein kinase I isoform alpha, sequence (P48729 whole entry, canonical isoform): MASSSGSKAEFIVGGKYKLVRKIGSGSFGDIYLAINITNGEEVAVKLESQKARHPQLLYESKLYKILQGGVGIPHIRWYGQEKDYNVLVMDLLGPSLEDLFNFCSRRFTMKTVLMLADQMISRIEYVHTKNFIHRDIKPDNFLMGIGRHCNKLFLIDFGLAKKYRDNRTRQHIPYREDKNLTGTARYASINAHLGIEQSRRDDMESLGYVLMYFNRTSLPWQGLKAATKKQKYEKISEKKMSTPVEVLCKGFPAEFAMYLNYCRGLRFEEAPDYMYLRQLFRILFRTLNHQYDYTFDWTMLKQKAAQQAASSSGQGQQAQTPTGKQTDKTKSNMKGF
DNA dC->dU-editing enzyme APOBEC-3G, sequence (Q9HC16 whole entry): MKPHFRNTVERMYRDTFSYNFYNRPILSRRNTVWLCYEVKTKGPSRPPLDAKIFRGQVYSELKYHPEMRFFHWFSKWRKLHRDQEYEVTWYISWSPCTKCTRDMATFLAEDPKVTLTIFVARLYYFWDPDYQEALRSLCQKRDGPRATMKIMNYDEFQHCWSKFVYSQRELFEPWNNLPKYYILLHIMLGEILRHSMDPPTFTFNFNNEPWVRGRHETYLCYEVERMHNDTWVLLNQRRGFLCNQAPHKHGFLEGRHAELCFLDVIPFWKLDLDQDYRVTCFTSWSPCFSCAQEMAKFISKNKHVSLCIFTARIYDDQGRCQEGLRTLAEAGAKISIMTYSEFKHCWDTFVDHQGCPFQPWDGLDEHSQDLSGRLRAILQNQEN
DNA dC->dU-editing enzyme APOBEC-3A, sequence (P31941 whole entry, canonical isoform): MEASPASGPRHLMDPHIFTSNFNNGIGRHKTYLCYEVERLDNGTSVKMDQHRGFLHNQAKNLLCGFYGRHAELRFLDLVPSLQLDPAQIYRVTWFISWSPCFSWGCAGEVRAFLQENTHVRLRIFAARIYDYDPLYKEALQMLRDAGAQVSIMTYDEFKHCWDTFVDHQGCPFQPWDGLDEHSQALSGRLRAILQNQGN

SMILES: COc1ccc(-c2nc3ccccc3c(=O)n2CCOc2ccc(C)cc2C)cc1
EC50 [5]: 15.2 µM (active)

SMILES: CCc1nc2sc3c(c2c2nnc(S)n12)CCC(C)C3 (stereo unspecified)
IC50 [8]: > 99 µM (inactive)
IC50 [9]: > 99 µM (inactive)

SMILES: Nc1nnc(-c2ccccc2)c(N)n1
Ki [10]: 20 µM (active)
Ki [11]: 39.8 µM (active)

Further lines, results first:

IC50 [1]: > 66 µM (inactive)
IC50 [2]: 3.84 µM (active)
IC50 [3]: 1.58 µM (active)
IC50 [4]: > 66 µM (inactive)
SMILES: S=C(NCc1ccccn1)Nc1ccc(Br)cc1Cl

Ki [6]: 1.58 µM (active)
Ki [7]: 2 µM (active)
SMILES: Cn1cc(Nc2ncc(Cl)c(Nc3ccccc3)n2)cn1
